Here are results for 1 compound from patent US20050009132A1, “Culture medium for detecting and/or discriminating enterococcus and method therefor” (priority 2001, published 2005).

The subject of the assay is Gram-positive bacteria. The assay is described as follows: Addition of Crystal Violet to culture medium, growth inhibition of Gram-positive bacteria. As to conditions: concentration as low as. It is filed as cell-based.

For `CN(C)c1ccc(C(=C2C=CC(=[N+](C)C)C=C2)c2ccc(N(C)C)cc2)cc1` [Crystal Violet], the “Crystal Violet concentration at which inhibition of the growth of a large quantity of Gram-positive bacteria is observed” value was determined as 0.1 mg/L.
